According to PubChem BioAssay AID256 (DTP/NCI, 2004):
Where “and” joins values, the source holds several entries; their conditions need not be identical. Equal entries are not always repeated. Toxic doses and inconclusive results are not listed. Rule for the calls: active = survival T/C of 150% or more; inactive = T/C below 125% in these data.

Tested on: CD2F1 mice, L1210 leukemia ip, survival T/C
Assay: NCI In Vivo Anticancer Drug Screen. Data for tumor model L1210 Leukemia (intraperitoneal) in CD2F1 (CDF1) mice
Conditions: higher = longer survival
How it was run: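 Activity against a transplanted murine tumor was judged by comparing the compound group with a vehicle group. The outcome in the treated animals was divided by that in the controls.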

[1] = endpoint: mean survival time, dose: 75.0 mg/kg/injection, schedule: Q01DX001 (ip), vehicle: saline
[2] = endpoint: mean survival time, dose: 150.0 mg/kg/injection, schedule: Q01DX001 (ip), vehicle: saline
[3] = endpoint: mean survival time, dose: 100.0 mg/kg/injection, schedule: Q04DX002 (ip), vehicle: saline with Tween-80
[4] = endpoint: mean survival time, dose: 200.0 mg/kg/injection, schedule: Q04DX002 (ip), vehicle: saline with Tween-80
[5] = endpoint: mean survival time, dose: 400.0 mg/kg/injection, schedule: Q04DX002 (ip), vehicle: saline with Tween-80
[6] = endpoint: mean survival time, dose: 50.0 mg/kg/injection, schedule: Q04DX003 (ip), vehicle: Klucel (hydroxypropylcellulose) (HPC)
[7] = endpoint: mean survival time, dose: 100.0 mg/kg/injection, schedule: Q04DX003 (ip), vehicle: Klucel (hydroxypropylcellulose) (HPC)
[8] = endpoint: mean survival time, dose: 200.0 mg/kg/injection, schedule: Q04DX003 (ip), vehicle: Klucel (hydroxypropylcellulose) (HPC)
[9] = endpoint: mean survival time, dose: 100.0 mg/kg/injection, schedule: Q04DX003 (ip), vehicle: saline with Tween-80
[10] = endpoint: mean survival time, dose: 200.0 mg/kg/injection, schedule: Q04DX003 (ip), vehicle: saline with Tween-80
[11] = endpoint: mean survival time, dose: 400.0 mg/kg/injection, schedule: Q04DX003 (ip), vehicle: saline with Tween-80
[12] = endpoint: mean survival time, dose: 25.0 mg/kg/injection, schedule: Q04DX003 (ip), vehicle: saline with Tween-80

Measured: T/C

Cc1ccnc(OCCCCCNCCS)c1
inactive: [1] 98 % of control | [2] 98 % of control

Oc1ccc2ccccc2c1NC(=S)Nc1ccccc1
inactive: endpoint: mean survival time, dose: 100.0 mg/kg/injection, schedule: Q04DX002 (ip), vehicle: Klucel (hydroxypropylcellulose) (HPC) 97 % of control | endpoint: mean survival time, dose: 200.0 mg/kg/injection, schedule: Q04DX002 (ip), vehicle: Klucel (hydroxypropylcellulose) (HPC) 93 % of control | endpoint: mean survival time, dose: 400.0 mg/kg/injection, schedule: Q04DX002 (ip), vehicle: Klucel (hydroxypropylcellulose) (HPC) 93 % of control

CSC(SC)=C(C#N)C#N
inactive: endpoint: mean survival time, dose: 12.5 mg/kg/injection, schedule: Q04DX002 (ip), vehicle: saline 102 % of control | endpoint: mean survival time, dose: 25.0 mg/kg/injection, schedule: Q04DX002 (ip), vehicle: saline 94 % of control | endpoint: mean survival time, dose: 50.0 mg/kg/injection, schedule: Q04DX002 (ip), vehicle: saline 92 % of control

CCCCN=C(C(=NCCCC)N(CCCC)CCCC)N(CCCC)CCCC
inactive: [3] 101 % of control | [4] 89 % of control | [5] 98 % of control

COC(=O)c1ccc(NCC(=N)N)cc1
inactive: endpoint: mean survival time, dose: 50.0 mg/kg/injection, schedule: Q01DX009 (ip), vehicle: saline 100 % of control | endpoint: mean survival time, dose: 100.0 mg/kg/injection, schedule: Q01DX009 (ip), vehicle: saline 122 % of control | endpoint: mean survival time, dose: 200.0 mg/kg/injection, schedule: Q01DX009 (ip), vehicle: saline 100 % of control

CSc1nc(Cl)c2cc(C)[nH]c2n1
inactive: endpoint: median survival time, dose: 50.0 mg/kg/injection, schedule: Q01DX005 (ip), vehicle: saline 98 % of control | endpoint: median survival time, dose: 100.0 mg/kg/injection, schedule: Q01DX005 (ip), vehicle: saline 100 % of control | endpoint: median survival time, dose: 200.0 mg/kg/injection, schedule: Q01DX005 (ip), vehicle: saline 94 % of control

CC(=O)C1CCC2C3CC=C4CC(n5ccc(=O)[nH]c5=O)CCC4(C)C3CCC12C (centres undefined)
inactive: endpoint: mean survival time, dose: 12.5 mg/kg/injection, schedule: Q04DX003 (ip), vehicle: Klucel (hydroxypropylcellulose) (HPC) 97 % of control | endpoint: mean survival time, dose: 25.0 mg/kg/injection, schedule: Q04DX003 (ip), vehicle: Klucel (hydroxypropylcellulose) (HPC) 101 % of control | [6] 97 % of control | [7] 97 % of control | [8] 92 % of control

Nc1cccc2c1-c1ccccc1C2
inactive: [6] 105 % of control | [7] 96 % of control | [8] 102 % of control

CC1C(=O)OC2C1CCC1(C)C(O)OC(=O)C(C)C21 (centres undefined)
inactive: [3] 104 % of control and 96 % of control | [4] 100 % of control and 108 % of control | [5] 100 % of control and 104 % of control

CCCCCCCCCC(=O)NCC[N+](C)(C)C
inactive: endpoint: mean survival time, dose: 5.0 mg/kg/injection, schedule: Q01DX001 (ip), vehicle: saline 107 % of control | endpoint: mean survival time, dose: 10.0 mg/kg/injection, schedule: Q01DX001 (ip), vehicle: saline 102 % of control | endpoint: mean survival time, dose: 20.0 mg/kg/injection, schedule: Q01DX001 (ip), vehicle: saline 103 % of control | endpoint: mean survival time, dose: 40.0 mg/kg/injection, schedule: Q01DX001 (ip), vehicle: saline 103 % of control | endpoint: mean survival time, dose: 80.0 mg/kg/injection, schedule: Q01DX001 (ip), vehicle: saline 103 % of control

NC(=O)c1csc(C2OC(CO)CC2O)n1 (centres undefined)
inactive: endpoint: median survival time, dose: 37.5 mg/kg/injection, schedule: Q01DX005 (ip), vehicle: water 92 % of control | endpoint: median survival time, dose: 75.0 mg/kg/injection, schedule: Q01DX005 (ip), vehicle: water 107 % of control | endpoint: median survival time, dose: 125.0 mg/kg/injection, schedule: Q01DX005 (ip), vehicle: water 104 % of control | endpoint: median survival time, dose: 150.0 mg/kg/injection, schedule: Q01DX005 (ip), vehicle: water 102 % of control | endpoint: median survival time, dose: 250.0 mg/kg/injection, schedule: Q01DX005 (ip), vehicle: water 116 % of control | endpoint: median survival time, dose: 300.0 mg/kg/injection, schedule: Q01DX005 (ip), vehicle: water 109 % of control | endpoint: median survival time, dose: 500.0 mg/kg/injection, schedule: Q01DX005 (ip), vehicle: water 121 % of control

Brc1ccc(OCC(COc2ccc(Br)cc2)(COc2ccc(Br)cc2)COc2ccc(Br)cc2)cc1
inactive: endpoint: mean survival time, dose: 100.0 mg/kg/injection, schedule: Q01DX001 (ip), vehicle: Klucel (hydroxypropylcellulose) (HPC) 100 % of control | endpoint: mean survival time, dose: 200.0 mg/kg/injection, schedule: Q01DX001 (ip), vehicle: Klucel (hydroxypropylcellulose) (HPC) 103 % of control | endpoint: mean survival time, dose: 400.0 mg/kg/injection, schedule: Q01DX001 (ip), vehicle: Klucel (hydroxypropylcellulose) (HPC) 91 % of control

Nc1ncnc2c1ncn2C1OC(CO)C2[O][Sn]([c]3ccccc3)([c]3ccccc3)[O]C21 (centres undefined)
inactive: endpoint: mean survival time, dose: 1.56 mg/kg/injection, schedule: Q01DX005 (ip), vehicle: other 107 % of control | endpoint: mean survival time, dose: 3.13 mg/kg/injection, schedule: Q01DX005 (ip), vehicle: other 105 % of control | endpoint: mean survival time, dose: 6.25 mg/kg/injection, schedule: Q01DX005 (ip), vehicle: other 100 % of control | endpoint: mean survival time, dose: 12.5 mg/kg/injection, schedule: Q01DX005 (ip), vehicle: other 90 % of control and 107 % of control

Cc1n(Cc2ccc(Cl)cc2Cl)cc[n+]1Cc1ccccc1
inactive: endpoint: mean survival time, dose: 10.0 mg/kg/injection, schedule: Q04DX003 (ip), vehicle: Klucel (hydroxypropylcellulose) (HPC) 100 % of control | endpoint: mean survival time, dose: 20.0 mg/kg/injection, schedule: Q04DX003 (ip), vehicle: Klucel (hydroxypropylcellulose) (HPC) 105 % of control | endpoint: mean survival time, dose: 40.0 mg/kg/injection, schedule: Q04DX003 (ip), vehicle: Klucel (hydroxypropylcellulose) (HPC) 92 % of control

NN1CCOC1=O
inactive: endpoint: mean survival time, dose: 100.0 mg/kg/injection, schedule: Q01DX001 (ip), vehicle: saline with Tween-80 97 % of control | endpoint: mean survival time, dose: 200.0 mg/kg/injection, schedule: Q01DX001 (ip), vehicle: saline with Tween-80 100 % of control

O.O.[Cl][Pt+2][Cl].[NH-]C1CCCCC1[NH-] (centres undefined)
inactive: endpoint: mean survival time, dose: 2.5 mg/kg/injection, schedule: Q04DX003 (ip), vehicle: dextrose 110 % of control | endpoint: mean survival time, dose: 5.0 mg/kg/injection, schedule: Q04DX003 (ip), vehicle: dextrose 113 % of control | endpoint: mean survival time, dose: 80.0 mg/kg/injection, schedule: Q04DX003 (ip), vehicle: dextrose 96 % of control | endpoint: median survival time, dose: 1.25 mg/kg/injection, schedule: Q04DX003 (ip), vehicle: saline 109 % of control | endpoint: median survival time, dose: 2.5 mg/kg/injection, schedule: Q04DX003 (ip), vehicle: saline 110 % of control | endpoint: median survival time, dose: 4.0 mg/kg/injection, schedule: Q04DX003 (ip), vehicle: saline 110 % of control [middle of 5 runs] | endpoint: median survival time, dose: 5.0 mg/kg/injection, schedule: Q04DX003 (ip), vehicle: saline 119 % of control | endpoint: median survival time, dose: 8.0 mg/kg/injection, schedule: Q04DX003 (ip), vehicle: saline 120 % of control | endpoint: median survival time, dose: 64.0 mg/kg/injection, schedule: Q04DX003 (ip), vehicle: saline 98 % of control and 120 % of control and 124 % of control

COC(=O)C1(C)CCCC2(C)C1CCC1(O)C(O)C(C(C)C)=CCC21 (centres undefined)
inactive: [9] 92 % of control | [10] 93 % of control | [11] 92 % of control

CCOC1=C([N+](=O)[O-])C(c2ccccc2)NC1=O (centres undefined)
inactive: [9] 95 % of control | [10] 95 % of control | [11] 89 % of control

CC(=O)OCC1OC(Oc2c(Br)cc(Br)cc2Br)C(OC(C)=O)C(OC(C)=O)C1OC(C)=O (centres undefined)
inactive: endpoint: mean survival time, dose: 100.0 mg/kg/injection, schedule: Q01DX009 (ip), vehicle: saline with Tween-80 96 % of control | endpoint: mean survival time, dose: 200.0 mg/kg/injection, schedule: Q01DX009 (ip), vehicle: saline with Tween-80 94 % of control | endpoint: mean survival time, dose: 400.0 mg/kg/injection, schedule: Q01DX009 (ip), vehicle: saline with Tween-80 96 % of control

Cc1ccc(C(=O)c2nnc(C(=O)c3ccc(C)cc3)nn2)cc1
inactive: [9] 92 % of control | [10] 92 % of control | [11] 86 % of control

CC(=O)c1cc2ccccc2o1
inactive: endpoint: mean survival time, dose: 6.25 mg/kg/injection, schedule: Q04DX003 (ip), vehicle: saline with Tween-80 96 % of control | endpoint: mean survival time, dose: 12.5 mg/kg/injection, schedule: Q04DX003 (ip), vehicle: saline with Tween-80 96 % of control | [12] 101 % of control | endpoint: mean survival time, dose: 50.0 mg/kg/injection, schedule: Q04DX003 (ip), vehicle: saline with Tween-80 95 % of control

CC(=O)ON1C(=O)C2C3C=CC(O3)C2C1=O (centres undefined)
inactive: endpoint: mean survival time, dose: 12.5 mg/kg/injection, schedule: Q01DX009 (ip), vehicle: water 100 % of control | endpoint: mean survival time, dose: 25.0 mg/kg/injection, schedule: Q01DX009 (ip), vehicle: water 91 % of control | endpoint: mean survival time, dose: 50.0 mg/kg/injection, schedule: Q01DX009 (ip), vehicle: water 96 % of control

O=NN1CCCCCC1=O
inactive: [1] 108 % of control | [2] 110 % of control | endpoint: mean survival time, dose: 300.0 mg/kg/injection, schedule: Q01DX001 (ip), vehicle: saline 120 % of control

CCC(C)[Se][Se]C(C)CC (centres undefined)
inactive: [12] 93 % of control
